These results are taken from patent publication US20050176619A1, “Antitumoral formulations of thioxanthenone” (priority 2001, published 2005).

Series [1] is described as follows: Stability under acidic conditions. Format: physicochemical. The source says:
(§1) It is desirable in the treatment of tumors and cancers to provide the active pharmaceutical ingredient as a ready-to-use (RTU) solution formulation which is pharmaceutically stable over prolonged periods of storage. […] Accordingly, it is an object of the present invention to overcome these difficulties by providing a stable solution formulation of N-[[1-[[2-(diethylamino)ethyl]amino]-7-methoxy-9-oxothioxanthen-4-yl]methyl]formamide, or a pharmaceutically acceptable acid-addition salt thereof, in ready-to-use form.

A short description of the next series: Solubility in water. Format: physicochemical.
Text: as §1

In brackets after ≈: the same amount, converted by molar mass.

As usually defined, the solubility is the concentration that dissolves in the medium under given conditions. Lower therefore signals little dissolved substance.

Take `CCN(CC)CCNc1ccc(CNC=O)c2sc3ccc(OC)cc3c(=O)c12` [N-[[1-[[2-(diethylamino)ethyl]amino]-7-methoxy-9-oxothioxanthen-4-yl]methyl]formamide]: the “stability under acidic conditions” value in series [1] was “unstable under acidic conditions”. In “Solubility in water”, this compound came in with a solubility of 100 µg/mL (≈ 242 µM).
